Assay results from patent US20190135818A1 (SHANGHAI INSTITUTE OF MATERIA MEDICA, CHINESE ACADEMY OF …, priority 2016, published 2019).

Experiments:
[1] = system: human lung cancer NCI-H1581 transplanted tumor; experiment: Tumor growth inhibition in tumor-bearing mice (subcutaneously transplanted tumor); type: in vivo, BALB/cA nude mice; conditions: for T/C (%): 13th day; for TV (mm^3, mean ± SD) d0: d0, before dosing
Experimental: Before using, the compound was diluted with 5% Tween80 in normal saline to the desired concentration (light yellow suspension), and was prepared once a week.
Before using, the compound was diluted with 1% Tween 80 in normal saline to the desired concentration (white suspension), and was prepared once a week.
The cell strain was inoculated in the right axilla of the nude mice, and the amount of cells inoculated was 5×10^6/animal to form transplanted tumor, and passaged in vivo in nude mice by 1 generation before use.
The tumor tissue in the vigorous growth period was cut into 1.5 mm^3, and inoculated subcutaneously in the right axilla of the nude mice under aseptic conditions. The diameter of the subcutaneously transplanted in a nude mice was measured with a vernier caliper, and the animals were randomly grouped when the average volume of tumors was about 220 mm^3. […] The solvent control group was given an equal amount of normal saline. The diameter of the transplanted tumor was measured twice a week during the entire experiment, and the body weights of the mice were weighed. The calculation formula of tumor volume (TV) is: TV=1/2×a×b2, where a and b respectively represent the length and width of the tumor. The relative tumor volume (RTV) was calculated based on the measured results and the formula was: RTV=Vt/V0. Where V0 is the tumor volume measured before grouping and dosing (d0), and Vt is the tumor volume at each measurement.

[2] = target: T1, FGFR1 (Homo sapiens, UniProt P11362); experiment: FGFR kinase inhibitory activity experiment (ELISA, Poly(Glu,Tyr)4:1 substrate); type: biochemical; conditions: kinase recombinant protein FGFR1, ATP 5 μM
T1 construct: The reaction was initiated by addition of FGFR kinase domain recombinant protein diluted with 49 μL of reaction buffer; purchased Millipore 14-482
Experimental: Precision electronic balance (Sartotius, Cat. No. BP210D), adjustable wavelength microplate reader (Molecular Device, Cat. No. SpectraMax 190).
After the liquid was removed from the wells, the plate was washed for three times with 200 μL/well of T-PBS (PBS containing 0.1% Tween-20) for 5 minutes each time. The enzyme plate was dried at 37° C. in a dryer for 1-2 hours.
50 μL ATP solution diluted with reaction buffer (50 mM HEPES pH 7.4, 50 mM MgCl2, 0.5 mM MnCl2, 0.2 mM Na3VO4, 1 mM DTT) was added into each well at a 5 μM final concentration. The compounds were diluted to appropriate concentration in DMSO, 1 μL/well or containing the corresponding concentrations of DMSO (negative control wells). The reaction was initiated by addition of FGFR kinase domain recombinant protein diluted with 49 μL of reaction buffer. Two control wells without enzyme were set in each experiment. The plate was placed on a shaker (100 rpm) at 37° C. for 1 hour. The plate was washed with T-PBS for three times. 100 μL/well of primary antibody PY99 dilution was added, and incubated at 37° C. for 0.5 hour on a shaker (100 rpm). The plate was washed with T-PBS for three times. 100 μL/well of horseradish peroxidase-labeled secondary anti-goat anti-mouse IgG dilution was added and incubated at 37° C. for 0.5 hour on a shaker (100 rpm). The plate was washed with T-PBS for three times. 100 μL/well of 2 mg/mL OPD coloration solution (diluted with 0.1 M citric acid-sodium citrate buffer containing 0.03% H2O2 (pH=5.4)) was added, and incubated in darkness for 1-10 minutes at 25° C. The reaction was quenched with 50 μL/well 2M H2SO4, and read at 490 nm using a tunable microplate microplate reader SPECTRA MAX 190.
The inhibition ratio of the sample was determined by the following formula: […]
(§1) The IC50 values were obtained by four-parameter regression analysis using the software supplied with the microplate reader.

[3] = system: Human acute myeloid leukemia cell line KG1; experiment: FGFR-dependent tumor cell proliferation inhibition activity test (CCK-8, 72 h); type: cell-based; conditions: Homo sapiens, KG-1, KG1 cells
Description: Human acute myeloid leukemia cell line KG1 (FGFR1 fusion protein expressed in the cytoplasm, FGFR1-dependent tumor cell line) (ATCC, Cat. No. CCL-246), cell culture medium RPMI-1640 (Corning Cellgro, No. 10-040-CVR), fetal bovine serum (Life
Technologies, Cat. No. 10099-141) was purchased from the company; CCK-8 cell counting kit (DOJINDO, Cat. No. FK808). Adjustable wavelength microplate reader (Molecular Device, Cat. No. SpectraMax 190).
The inhibitory effect of the compound on KG1 proliferation was detected by CCK-8 Cell Counting Kit (Dojindo): Logarithmic growth phase cells were seeded in 96-well culture plate in appropriate density, 90 ul for each well. After cultured overnight, different concentrations of drugs were added and incubated for 72 h, while solvent control well was set (negative control). After the cells were treated by the compound for 72 h, 10 μL of CCK-8 reagent was added to each well. After incubated for 2-4 hours in a 37 □ incubator, the plate was read with SpectraMax 190 microplate reader at wavelength 450 nm.
The inhibition rate of compounds against cell proliferation is calculated by the following formula:
Inhibition rate (%)=(OD negative control well-OD administration well)/OD negative control well×100%.
as §1

[4] = AZD4547 12.5 mg/kg po qd/13, d13

T1 sequence (P11362 478-767 limits assumed): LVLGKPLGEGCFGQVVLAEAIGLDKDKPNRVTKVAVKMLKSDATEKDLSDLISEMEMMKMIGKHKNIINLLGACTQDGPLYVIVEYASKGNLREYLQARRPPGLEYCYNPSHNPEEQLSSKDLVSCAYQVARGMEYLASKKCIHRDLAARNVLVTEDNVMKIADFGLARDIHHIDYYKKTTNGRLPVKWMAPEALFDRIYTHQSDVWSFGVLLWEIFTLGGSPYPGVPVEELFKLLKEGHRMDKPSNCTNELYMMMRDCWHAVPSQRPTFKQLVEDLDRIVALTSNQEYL

| Compound | IC50 [2] | IC50 [3] | further results |
| --- | --- | --- | --- |
| AZD4547 [reference compound] | – | – | growth of subcutaneously transplanted tumors (in words) ([1]; 12.5 mg/kg orally once a day for 13 days): partially inhibited; T/C (%) ([1]; AZD4547 12.5 mg/kg po qd/13): 16.39%; TV (mm^3, mean ± SD) d0 ([1]; AZD4547 12.5 mg/kg po qd/13): 153 ± 50 mm^3; RTV (mean ± SD) [1, 4]: 3.43 ± 2.61; TV (mm^3, mean ± SD) d13 [1, 4]: 517 ± 392 mm^3 |
| C=CC(=O)N1CCC(n2nc3c(=O)[nH]nc(N)c3c2-c2oc3ccc(Cl)cc3c2C)CC1 [Compound A86, 2-(1-acryloylpiperidin-4-yl)-4-amino-3-(5-chloro-3-methylbenzofuran-2-yl)-2,6-dihydro-7H-pyrazolo[3,4-d]pyridazin-7-one] | < 100 nM | ≤ 100 nM | – |
| CCC(=O)N1CCC(n2nc3c(=O)[nH]nc(N)c3c2-c2oc3ccc(Cl)cc3c2C)CC1 [Compound A41] | < 100 nM | 100 to 1000 nM | – |
| C=CC(=O)N1CCCC(n2nc3c(=O)[nH]nc(N)c3c2-c2oc3ccc(C)cc3c2C)C1 (centres unmarked) [Compound A40, 2-(1-acryloylpiperidin-3-yl)-4-amino-3-(3,5-dimethyl-1-benzofuran-2-yl)-2,6-dihy-dro-7H-pyrazolo[3,4-d]pyridazin-7-one] | < 100 nM | ≤ 100 nM | – |
| Cc1c(-c2c3c(N)n[nH]c(=O)c3nn2-c2ccccc2)oc2ccc(Cl)cc12 [Compound A7, 4-amino-3-(5-chloro-3-methyl-1-benzo-furan-2-yl)-2-phenyl-2,6-dihydro-7H-pyrazolo[3,4-d]pyridazin-7-one] | < 100 nM | 100 to 1000 nM | – |
| C=C(F)C(=O)N1CCC(n2nc3c(=O)[nH]nc(N)c3c2-c2oc3ccc(C)cc3c2C)C1 (centres unmarked) [Compound A52, 4-amino-3-(3,5-dimethyl-1-benzofuran-2-yl)-2-[1-(2-fluoroacryloyl)pyrrolidin-3-yl]-2,6-dihydro-7H-pyrazolo[3,4-d] pyridazin-7-one] | < 100 nM | ≤ 100 nM | – |
| Cc1ccc2oc(-c3c4c(N)n[nH]c(=O)c4nn3C3CCN(C(=O)/C=C/CN(C)C)CC3)c(C)c2c1 [Compound A30, 4-amino-2-{1-[(2E)-4-(dimethylamino)but-2-enoyl]piperidin-4-yl}-3-(3,5-dimethyl-1-benzofuran-2-yl)-2,6-dihydro-7H-pyrazolo[3,4-d]pyridazin-7-one] | < 100 nM | ≤ 100 nM | – |
| Cc1ccc2oc(-c3c4c(N)n[nH]c(=O)c4nn3C3CCC(NC(=O)CN(C)C)CC3)c(C)c2c1 (centres unmarked) [Compound A35, N-{4-[4-amino-3-(3,5-dimethyl-1-benzo-furan-2-yl)-7-carbonyl-6,7-dihydro-2H-pyrazolo[3,4-d]pyridazin-2-yl]cyclohexyl}-N,N-dimethylglycinamide] | < 100 nM | 100 to 1000 nM | – |
| Cc1c(-c2c3c(N)n[nH]c(=O)c3nn2-c2ccccc2)oc2cc(F)ccc12 [Compound A8, 4-amino-3-(6-fluoro-3-methyl-1-benzo-furan-2-yl)-2-phenyl-2,6-dihydro-7H-pyrazolo[3,4-d]pyridazin-7-one] | < 100 nM | 100 to 1000 nM | – |
| C=CC(=O)N1CCC(n2nc3c(=O)[nH]nc(N)c3c2-c2oc3ccc(C)cc3c2CC)CC1 [Compound A85, 2-(1-acryloylpiperidin-4-yl)-4-amino-3-(3-ethyl-5-methylbenzofuran-2-yl)-2,6-dihydro-7H-pyrazolo[3,4-d]pyridazin-7-one] | < 100 nM | ≤ 100 nM | – |
| C=CC(=O)N1CCC(n2nc3c(=O)[nH]nc(N)c3c2-c2oc3ccc(C)cc3c2C)CC1 [Compound A29, 2-(1-acryloylpiperidin-4-yl)-4-amino-3-(3,5-dimethyl-1-benzofuran-2-yl)-2,6-dihydro-7H-pyrazolo[3,4-d]pyridazin-7-one] | < 100 nM | ≤ 100 nM | – |
| C=CC(=O)N1CCC(n2nc3c(=O)[nH]nc(N)c3c2-c2oc3ccc(C)cc3c2C)C1 (centres unmarked) [Compound A51, 2-(1-acryloylpyrrolidin-3-yl)-4-amino-3-(3,5-dimethyl-1-benzofuran-2-yl)-2,6-dihydro-7H-pyrazolo[3,4-d]pyridazin-7-one] | < 100 nM | ≤ 100 nM | – |
| C=CC(=O)N1CCC(n2nc3c(=O)[nH]nc(N)c3c2-c2oc3cc(F)ccc3c2C)CC1 [Compound A83, 2-(1-acryloylpiperidin-4-yl)-4-amino-3-(6-fluoro-3-methylbenzofuran-2-yl)-2,6-dihydro-7H-pyrazole[3,4-d]pyridazine-7-one] | < 100 nM | ≤ 100 nM | – |
| CCN1CCC(n2nc3c(=O)[nH]nc(N)c3c2-c2oc3ccc(Cl)cc3c2C)CC1 [Compound A23, 4-amino-3-(5-chloro-3-methyl-1-benzo-furan-2-yl)-2-(1-ethylpiperidin-4-yl)-2,6-dihydro-7H-pyrazolo[3,4-d]pyridazin-7-one] | < 100 nM | ≤ 100 nM | – |
| Cc1c(-c2c3c(N)n[nH]c(=O)c3nn2-c2ccc(NC(=O)/C=C/CN(C)C)cc2)oc2ccc(Cl)cc12 [Compound A26, (2E)-N-{4-[4-amino-3-(5-chloro-3-methyl-1-benzofuran-2-yl)-7-carbonyl-6,7-dihydro-2H-pyrazolo[3,4-d]pyridazin-2-yl]phenyl}-4-(dimethylamino)but-2-enamide] | – | ≤ 100 nM | growth of subcutaneously transplanted tumors (in words) ([1]; 50 mg/kg and 10 mg/kg intraperitoneally once a day for 13 days): significantly inhibited; T/C (%) ([1]; A26 10 mg/kg ip qd/13): 19.88%; body weight (g) d0 ([1]; A26 10 mg/kg ip qd/13): 18.4 g; TV (mm^3, mean ± SD) d0 ([1]; A26 10 mg/kg ip qd/13): 161 ± 71 mm^3; RTV (mean ± SD) ([1]; A26 10 mg/kg ip qd/13, d13): 4.17 ± 2.49; TV (mm^3, mean ± SD) d13 ([1]; A26 10 mg/kg ip qd/13, d13): 621 ± 289 mm^3; body weight (g) d13 ([1]; A26 10 mg/kg ip qd/13, d13): 21.3 g; T/C (%) ([1]; A26 50 mg/kg ip qd/13): 2.20%; body weight (g) d0 ([1]; A26 50 mg/kg ip qd/13): 18.2 g; TV (mm^3, mean ± SD) d0 ([1]; A26 50 mg/kg ip qd/13): 159 ± 69 mm^3; RTV (mean ± SD) ([1]; A26 50 mg/kg ip qd/13, d13): 0.46 ± 0.19; TV (mm^3, mean ± SD) d13 ([1]; A26 50 mg/kg ip qd/13, d13): 66 ± 21 mm^3 |
